Article PMC5325331, “A steroid like phytochemical Antcin M is an anti-aging reagent that eliminates hyperglycemia-accelerated premature senescence in dermal fibroblasts by direct activation of Nrf2 and SIRT-1” (Oncotarget, 2016)
Like-named read-outs stand apart in the source and are kept apart here.

Legend:
HNDFs [1] = assay: Cytotoxicity of antcins against HNDFs (MTT assay); type: cell-based, human; settings: for IC50: MTT assay, read-out: IC50 (50% inhibitory concentration) against HNDFs; for cytotoxicity to HNDFs up to the high treatment concentration: up to 20 μM, 72 h, MTT
Procedure: Figure 2 Effects of antcins on HG-induced senescence in HNDFs A. Type of antcins subjected to screen for potential anti-aging agents for skin aging. Names and chemical structures of the antcins are shown in the left and centrer column, respectively. The cytotoxic effects of antcins against HNDFs. Briefly, HNDFs were incubated with increasing concentrations (1, 5, 10 and 20 μM) of antcins including antcin A, antcin B, antcin C, antcin H, anticn K and antcin M for 72 h and the cell viability was determined by MTT assay. The 50% inhibitory concentrations (IC50) of each compound against HNDFs are shown in right column. B. Cells were incubated with antcin A (10 μM), antcin H (10 μM) and antcin M (10 μM) in the presence of HG (30 mM) for 72 h. Cellular senescence was determined by SA-β-gal activity. […] C. HNDFs were incubated with antcin A (10 μM), antcin H (10 μM) and antcin M (10 μM) in the presence of HG (30 mM) for 72 h. Senescence-associated marker proteins such as p16^INK4A, p21^CIP1 and SMP30 were determined by western blot analysis. D. To determine the effect of antcins on cell proliferation efficacy, HNDFs 5 × 10^4 cells/well in 6-well plates were incubated with antcins in the presence of HG (30 mM) for 72 h. Number of viable cells were quantified by the tryphan blue exclusion method. Results are expressed as mean ± S.E.M of three indipendent expriments. Statistical significance was et at ^ФP < 0.05 compared to NG vs HG and *P < 0.05 compared to HG vs. samples.
(§1) Human normal dermal fibroblasts (HNDFs, CCD966SK) and human umbilical vein endothelial cells (HUVECs) were obtained from the Bioresource Collection and Research Center (BCRC), Hsinchu, Taiwan. HNDFs were grown in MEM containing 10% FBS, 2 mM L-glutamine, 100 U/mL penicillin and streptomycin at 37°C in a fully humidified atmosphere of 5% CO2. Likewise, HUVECs were grown in M-199 medium supplemented with ECGS, heparin, 10% FBS and 100 U/mL penicillin and streptomycin at 37°C in a fully humidified atmosphere of 5% CO2. High-glucose treatment was performed by treating cells with 15 or 30 mM D-glucose (HG) for 24-72 h.
Cell viability was assessed by MTT colorimetric assay. Briefly, HNDFs (2 × 10^4 cells/well) or HUVECs (5 × 10^4 cells/well) were seeded in a 24-well culture plate. After treatment with HG (15 and 30 mM) in the presence or absence of samples for 24-72 h, culture media was withdrawn and incubated with MTT (1 mg/mL) in fresh medium for 2 h. The MTT formazan crystals were dissolved in 400 μL of DMSO and the samples were measured at 570 nm […] using an ELISA microplate reader (Bio-Tek Instruments, Winooski, VT). The percentage of cell viability (%) was calculated as (A570 of treated cells/A570 of untreated cells) × 100.

HNDFs [2] = assay: SA-β-gal senescence assay in HG-induced HNDFs; type: cell-based, human; settings: for SA-β-gal positive cells: 10 μM with HG (30 mM) for 72 h, HG alone 9.59-fold (Figure 2B); for HG-induced SA-β-gal activity in kinase inhibitor-treated cells: inhibitor 30 μM with HG (30 mM) for 72 h (Figure 4H)
Procedure: as §1
Senescence-associated β-galactosidase (SA-β-gal) activity was determined in formaldehyde-fixed histochemical staining kit according to the manufacturer's instructions (Cell Signaling Technology, Danvers, […]). Briefly, cells were grown in 6-well plates at a density of 5 × 10^4 cells/well, and incubated with HG or test samples for 48 h (HUVECs) or 72 h (HNDFs). After incubation, cells were stained with SA-β-gal staining solution at pH 6.0 overnight and then the development of blue staining was observed and photographed under a bright-field microscope (Motic Electric Group, Xiamen, P.R. China).

HNDFs [3] = assay: Cell proliferation, trypan blue exclusion assay in HG-induced HNDFs; type: cell-based, human; settings: with HG (30 mM) for 72 h (Figure 2D)
Procedure: Cell proliferation was evaluated using trypan blue exclusion assay as described previously with minor modification. Cells were plated into 6-well plates at a density of 5 × 10^4 cells/well. After incubation overnight, cells were treated with test samples in the presence or absence of HG for 24-72 h. Cells exposed to 0.2% Trypan blue were then counted in a hemocytometer, and cells stained with Trypan blue were excluded. Percentage of viable cells was calculated based on the ratio of viable cells to total cell population in each well. The proliferation rate was calculated based on the number of viable cells in HG or sample-treated groups versus the NG-treated group.

[4] = test system: p16INK4A, p21CIP1 and SMP30; assay: Western blot of senescence-associated marker proteins in HG-induced HNDFs; type: cell-based, human; settings: 10 μM with HG (30 mM) for 72 h, immunoblotting
Procedure: Cells were lysed by either RIPA lysis buffer or nuclear and cytoplasmic extraction reagents (Thermo Fisher Scientific). Protein concentrations were determined by Bio-Rad protein assay reagent (Bio-Rad Laboratories, Hercules, CA). Equal amounts of protein samples (60 μg) were separated by 7-12% SDS-PAGE and the separated proteins were transferred onto polyvinylidene […] (PVDC) membrane overnight. The transferred protein membranes were blocked with 5% non-fat dried milk for 30 min, followed by incubation with specific primary antibodies overnight, and either horseradish peroxidase-conjugated goat anti-rabbit or anti-mouse antibodies for 2 h. The blots were detected using VL Chemi-Smart 3000 (Viogene Biotek, Sunnyvale, CA) with the enhanced chemiluminescence (ECL) western blotting reagent (Millipore, Billerica, MA).

[5] = test system: Nrf2 transcriptional activity (ARE promoter); assay: ARE luciferase reporter assay in HNDFs; type: cell-based, human; settings: for ANM-induced ARE luciferase activity after inhibitor pretreatment: inhibitor pre-incubation 2 h, then ANM 6 h in the presence of HG; for ARE luciferase activity: 6 h
Procedure: ARE promoter activity was measured using a dual-luciferase reporter assay system (Promega, Madison, WI). […] Cells were then transfected with ARE plasmid (Qiagen, Hilden, Germany) using Lipofectamine 2000 (Invitrogen) and incubated for 36 h. […] The cell lysate was prepared and incubated with luciferase agents and the relative luminescence intensity was quantified using a spectrophotometer (Hidex Oy, Turku, Finland).

HNDFs [6] = assay: Cell-cycle analysis by flow cytometry (PI) in HG-induced HNDFs; type: cell-based, human; settings: NAC 100 μM with HG (30 mM) for 72 h
Procedure: HNDFs at a density of 5 × 10^5 cells in 10 cm dishes were treated with ANM or NAC in the presence or absence of HG for 72 h. Cells were collected, washed with PBS and fixed in 95% cold-ethanol, and kept at −20°C overnight. The cell pellet was then washed again with PBS and centrifuged at 1500 × g for 5 min. The pellet was re-suspended in 1 mL PI/Triton X-100 (20 μg/mL PI, 0.1% Triton X-100 and 0.2 mg/mL RNAse) and incubated on ice for 30 min. The total cellular DNA content was analyzed with a flow cytometer (Beckman Coulter FC500). Data were acquired and analyzed using CXP software (Beckman Coulter).

[7] = Cell-free DPPH free-radical scavenging assay
Procedure: Therefore, next to determine whether ANM acts directly as a free-radical scavenger, we performed a cell-free DPPH free-radical scavenging assay.
Figure 5 Antcin M activates Nrf2-dependent anti-oxidant defense in HNDFs A. To determine the free-radical scavenging effect of ANM, cell-free DPPH assay was performed. […] Results expressed as mean ± S.E.M of three indipendent expriments.

HNDFs [8] = assay: Flow cytometric detection of intracellular ROS (DCFH2-DA) in HNDFs; type: cell-based, human
Procedure: Intracellular ROS accumulation was determined using the dye DCFH2-DA following a procedure described earlier. Briefly, HNDFs (1 × 10^5 cells/well) were seeded in 6-well plates and incubated with HG in the presence or absence of test samples for 24 h. At the end of the incubation, the culture supernatant was removed and cells were washed twice with PBS. DCFH2-DA (10 μM) was mixed with 500 μL MEM and added to the culture plate. After incubation for 30 minutes, cells were collected by trypsin and the fluorescence shift was quantified using a flow cytometer (Beckman Coulter). Data were acquired and analyzed using CXP software (Beckman Coulter).

[9] = Homo sapiens, 72 h, 1, 5, 10 and 20 μM for 72 h

C=C(CC[C@@H](C)[C@H]1CC[C@H]2C3=C(C(=O)C[C@]12C)[C@@]1(C)CC[C@@H](O)[C@](C)(O)[C@@H]1C[C@@H]3O)C(C)C(=O)O (stereo partly drawn) [ANK, antcin K]
IC50 (HNDFs [1]; [9]): 2.89 µM

C=C(CC[C@@H](C)[C@H]1CC[C@H]2C3=C(C(=O)C[C@]12C)[C@@]1(C)CCC(=O)[C@@H](C)[C@@H]1CC3=O)[C@H](C)C(=O)O [ANB, antcin B]
IC50 (HNDFs [1]; [9]): 7.11 µM

C=C(CC[C@@H](C)[C@H]1CC[C@H]2C3=C(C(=O)C[C@]12C)[C@@]1(C)CCC(=O)[C@@H](C)[C@@H]1CC3)C(C)C(=O)O (stereo partly drawn) [ANA, antcin A]
SA-β-gal positive cells (HNDFs [2]): 7.46 fold
IC50 (HNDFs [1]; [9]): > 50 µM
cell proliferation compared to the HG treatment group (HNDFs [3]): partially increased cell proliferation
HG-induced upregulation of p16INK4A and p21CIP1 proteins [4]: moderate inhibition

COc1cccc(-c2cc(=O)c3ccccc3o2)c1N [PD98059, reference compound]
ANM-induced ARE luciferase activity after inhibitor pretreatment [5]: effectively suppressed
HG-induced SA-β-gal activity in kinase inhibitor-treated cells (HNDFs [2]): did not affect

CC(=O)N[C@@H](CS)C(=O)O [NAC, N-acetylcysteine, reference compound]
ARE luciferase activity ([5]; ANM 10 μM or NAC 100 μM alone, control 1-fold): 6.3 fold
ARE luciferase activity ([5]; co-treated with HG (30 mM), ANM 10 μM or NAC 100 μM, HG alone 2.5-fold): 8.2 fold
HG-induced cell-cycle arrest (HNDFs [6]): partially blocked
free-radical scavenging in the cell-free system [7]: potent free-radical scavenging effect
HG-induced ROS generation (HNDFs [8]; ANM 10 μM or NAC 100 μM with HG (30 mM) for 24 h, HG alone 426.2%): 176.58%
ROS generation, treatment alone (HNDFs [8]; ANM 10 μM or NAC 100 μM without HG, 24 h): did not significantly increase ROS generation

C[S+]([O-])c1ccc(-c2nc(-c3ccncc3)c(-c3ccc(F)cc3)[nH]2)cc1 (stereo not drawn) [SB203580, reference compound]
ANM-induced ARE luciferase activity after inhibitor pretreatment [5]: partially or barely inhibited
HG-induced SA-β-gal activity in kinase inhibitor-treated cells (HNDFs [2]): barely observed

C=C(CCC(C)C1CCC2C3=C(C(=O)C(O)C21C)C1(C)CCC(O)C(C)C1CC3=O)C(C)C(=O)O (stereo not drawn) [ANH, antcin H]
SA-β-gal positive cells (HNDFs [2]): 8.13 fold
IC50 (HNDFs [1]; 1, 5, 10 and 20 μM for 72 h): > 50 µM
cytotoxicity to HNDFs up to the high treatment concentration (HNDFs [1]): did not show significant cytotoxicity
cell proliferation compared to the HG treatment group (HNDFs [3]): partially increased cell proliferation
HG-induced upregulation of p16INK4A and p21CIP1 proteins [4]: moderate inhibition

C=C(CCC(C)C1CCC2C3=C(C(=O)CC21C)C1(C)CCC(=O)C(C)C1CC3O)C(C)C(=O)O (stereo not drawn) [ANC, antcin C]
IC50 (HNDFs [1]; [9]): > 50 µM
cytotoxicity to HNDFs up to the high treatment concentration (HNDFs [1]): did not show significant cytotoxicity

O=c1cc(N2CCOCC2)oc2c(-c3ccccc3)cccc12 [LY294002, reference compound]
ANM-induced ARE luciferase activity after inhibitor pretreatment [5]: effectively suppressed
HG-induced SA-β-gal activity in kinase inhibitor-treated cells (HNDFs [2]): reduced

Oc1c2ccccc2c2c3c(cccc13)N=N2 [SP600125, reference compound]
ANM-induced ARE luciferase activity after inhibitor pretreatment [5]: partially or barely inhibited
HG-induced SA-β-gal activity in kinase inhibitor-treated cells (HNDFs [2]): barely observed
